Read-outs that look alike come from different tables or passages of the source.
How the values were obtained:
CK2 = CK2 (Homo sapiens, UniProt P68400); experiment: CK2 inhibition, biochemical chemiluminescence holoenzyme assay (Kinase Glo, IC50 determination); settings: Table 1 activity class; symbol given only if active; read-out: CK2 IC50 (Activity C)
Outline: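 Holoenzyme CK2 assay; compounds pre-incubated with substrate and enzyme, then reacted 150 min at 24-27° C. Remaining ATP measured as luminescence with Kinase Glo, and IC50 derived from the signal.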

[1] = target: PIM (PIM-1, PIM-2, and/or PIM-3); experiment: PIM-1, PIM-2 and PIM-3 inhibition, biochemical chemiluminescence assays (Kinase Glo, IC50 determination); settings: Table 1 activity class; PIM refers to PIM-1, PIM-2, and/or PIM-3; read-out: PIM IC50 (Activity B)
CDC7 = CDC7 (Homo sapiens, UniProt O00311); experiment: CDC7 inhibition, biochemical chemiluminescence assay (Kinase Glo, IC50 determination)
Chain of CDC7 (O00311 whole entry): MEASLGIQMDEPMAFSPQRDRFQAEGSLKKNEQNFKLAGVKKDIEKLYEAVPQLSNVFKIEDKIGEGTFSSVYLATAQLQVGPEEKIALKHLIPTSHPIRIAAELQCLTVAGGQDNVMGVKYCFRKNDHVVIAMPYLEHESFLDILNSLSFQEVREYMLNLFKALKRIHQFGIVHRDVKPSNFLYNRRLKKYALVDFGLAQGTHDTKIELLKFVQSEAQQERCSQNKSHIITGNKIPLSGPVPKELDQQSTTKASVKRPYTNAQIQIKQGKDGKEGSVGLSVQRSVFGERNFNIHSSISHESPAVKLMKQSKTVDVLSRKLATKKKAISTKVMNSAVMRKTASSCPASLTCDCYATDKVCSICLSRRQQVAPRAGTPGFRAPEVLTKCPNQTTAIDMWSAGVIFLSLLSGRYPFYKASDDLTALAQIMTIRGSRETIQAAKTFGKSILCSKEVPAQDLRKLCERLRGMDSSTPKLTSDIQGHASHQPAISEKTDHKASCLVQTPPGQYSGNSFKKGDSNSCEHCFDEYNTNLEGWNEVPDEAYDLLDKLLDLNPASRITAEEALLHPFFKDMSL
Chain of CDC7 (Q9UBU7 whole entry partner): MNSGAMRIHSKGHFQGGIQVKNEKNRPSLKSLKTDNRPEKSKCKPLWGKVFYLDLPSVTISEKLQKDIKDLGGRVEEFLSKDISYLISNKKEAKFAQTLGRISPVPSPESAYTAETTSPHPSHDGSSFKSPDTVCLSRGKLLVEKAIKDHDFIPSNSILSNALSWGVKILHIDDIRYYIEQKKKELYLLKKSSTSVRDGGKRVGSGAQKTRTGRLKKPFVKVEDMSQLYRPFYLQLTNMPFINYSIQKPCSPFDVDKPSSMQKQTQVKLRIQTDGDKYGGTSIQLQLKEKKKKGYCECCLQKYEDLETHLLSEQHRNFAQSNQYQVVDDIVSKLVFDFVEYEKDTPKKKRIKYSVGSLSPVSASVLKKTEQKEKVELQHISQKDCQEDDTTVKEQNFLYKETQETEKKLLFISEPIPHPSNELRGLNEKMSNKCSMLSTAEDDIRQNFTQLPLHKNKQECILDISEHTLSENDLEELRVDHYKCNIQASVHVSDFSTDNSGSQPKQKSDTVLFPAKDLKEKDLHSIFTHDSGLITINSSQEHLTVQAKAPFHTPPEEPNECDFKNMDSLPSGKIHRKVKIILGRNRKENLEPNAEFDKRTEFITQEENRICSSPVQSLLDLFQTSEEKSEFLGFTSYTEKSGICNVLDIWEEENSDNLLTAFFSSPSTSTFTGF
Outline: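 CDC7 enzyme preincubated with compound 10 min at ambient temperature, then ATP mix in Tris Base added; reaction 90 min at 24-27 °C. Remaining ATP quantified by Kinase Glo luminescence to give IC50.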

[2] = Table 1 activity class, symbol given only if active, read-out: CDC7 IC50 (Activity A)
[3] = compounds in Table 1, read-out: CDC7 IC50 value

Chain of CK2 (P68400 whole entry): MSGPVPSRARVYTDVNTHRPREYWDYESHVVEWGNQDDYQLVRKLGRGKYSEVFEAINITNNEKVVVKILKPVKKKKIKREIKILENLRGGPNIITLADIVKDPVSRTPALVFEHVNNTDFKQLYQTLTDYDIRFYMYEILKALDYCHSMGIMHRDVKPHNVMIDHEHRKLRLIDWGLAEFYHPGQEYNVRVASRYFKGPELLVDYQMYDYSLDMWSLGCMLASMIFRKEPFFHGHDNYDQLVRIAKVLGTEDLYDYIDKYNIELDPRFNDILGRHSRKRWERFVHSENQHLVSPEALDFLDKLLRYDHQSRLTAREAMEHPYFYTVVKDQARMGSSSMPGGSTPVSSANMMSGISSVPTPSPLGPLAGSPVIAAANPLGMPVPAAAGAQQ
Chain of CK2 (P67870 whole entry partner): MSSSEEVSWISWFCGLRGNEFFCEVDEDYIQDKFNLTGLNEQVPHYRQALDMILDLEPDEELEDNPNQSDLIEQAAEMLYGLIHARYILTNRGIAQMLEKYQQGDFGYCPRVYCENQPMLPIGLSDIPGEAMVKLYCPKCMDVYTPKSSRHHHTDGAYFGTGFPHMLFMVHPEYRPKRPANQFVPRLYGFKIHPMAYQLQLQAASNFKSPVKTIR

Structure (SMILES)	IC50 (CK2) [µM]	IC50 [1] [µM]	IC50 (CDC7; [2]) [µM]	IC50 (CDC7; [3]) [µM]	IC50 (CDC7; CDC7 IC50 (Activity A), Table 1 activity class, symbol given only if active) [µM]	IC50 (CDC7; CDC7 IC50 value, compounds in Table 1) [µM]
C[C@@H]1CNC[C@H](C)N1Cc1nc2c(oc3ccc(Br)cc32)c(=O)[nH]1 [Compound 216, 8-bromo-2-{[(2R,6S)-2,6-dimethylpiperazin-1-yl]methyl}[1]benzofuro[3,2-d]pyrimidin-4(3H)-one]	< 10	< 10	< 10	< 0.1	–	–
O=c1[nH]c(-c2ccccc2I)nc2c1oc1ccc(Br)cc12 [Compound 40, 8-bromo-2-(2-iodophenyl)[1]benzofuro[3,2-d]pyrimidin-4(3H)-one]	< 10	< 10	< 10	–	–	–
O=c1[nH]c(CN2CC[C@H](O)C2)nc2c1oc1ccc(Cl)cc12 [Compound 429, 8-chloro-2-{[(3S)-3-hydroxypyrrolidin-1-yl]methyl}[1]benzofuro[3,2-d]pyrimidin-4(3H)-one]	< 10	< 10	< 10	< 0.1	–	–
O=C(Nc1ccc(-c2nc3c(oc4ccc(Br)cc43)c(=O)[nH]2)c(Cl)c1)c1ccncc1 [Compound 143, N-[4-(8-bromo-4-oxo-3,4-dihydro[1]benzofuro[3,2-d]pyrimidin-2-yl)-3-chlorophenyl]pyridine-4-carboxamide]	< 10	< 10	< 10	–	–	–
O=c1[nH]c(Nc2cccnc2)nc2c1oc1ccc(Br)cc12 [Compound 214, 8-bromo-2-(pyridin-3-ylamino)[1]benzofuro[3,2-d]pyrimidin-4(3H)-one]	< 10	< 10	< 10	< 0.1	–	–
O=C(O)C1CN(Cc2nc3c(oc4ccc(Br)cc43)c(=O)[nH]2)C1 [Compound 370, 1-[(8-bromo-4-oxo-3,4-dihydro[1]benzofuro[3,2-d]pyrimidin-2-yl)methyl]azetidine-3-carboxylic acid]	< 10	< 10	< 10	–	–	–
COc1ccc2oc3c(=O)[nH]c(-c4ccc([N+](=O)[O-])cc4Cl)nc3c2c1 [Compound 124, 2-(2-chloro-4-nitrophenyl)-8-(methyloxy)[1]benzofuro[3,2-d]pyrimidin-4(3H)-one]	< 10	< 10	< 10	–	–	–
CC[C@H](C)NCc1nc2c(oc3ccc(Br)cc32)c(=O)[nH]1 [Compound 522, 8-bromo-2-({[(1S)-1-methylpropyl]amino}methyl)[1]benzofuro[3,2-d]pyrimidin-4(3H)-one]	< 10	< 10	< 10	< 0.1	–	–
O=c1[nH]c(-c2ccc(CNCCN3CCCCC3)cc2Cl)nc2c1oc1ccc(Br)cc12 [Compound 385, 8-bromo-2-(2-chloro-4-{[(2-piperidin-1-ylethyl)amino]methyl}phenyl)[1]benzofuro[3,2-d]pyrimidin-4(3H)-one]	< 10	< 10	< 10	–	–	–
O=C(Nc1ccc(-c2nc3c(oc4ccc(Br)cc43)c(=O)[nH]2)c(Cl)c1)C1CCNC1 (centres unmarked) [Compound 178, N-[4-(8-bromo-4-oxo-3,4-dihydro[1]benzofuro[3,2-d]pyrimidin-2-yl)-3-chlorophenyl]pyrrolidine-3-carboxamide]	< 10	< 10	< 10	–	–	–
O=c1[nH]c(CNCC(O)CO)nc2c1oc1ccc(Br)cc12 (centres unmarked) [Compound 262, 8-bromo-2-{[(2,3-dihydroxypropyl)amino]methyl}[1]benzofuro[3,2-d]pyrimidin-4(3H)-one]	< 10	< 10	< 10	< 0.1	–	–
O=c1[nH]c(CN2CC3CCC2[C@H]3O)nc2c1oc1ccc(Br)cc12 (stereo partly drawn) [Compound 413, 8-bromo-2-{[(7S)-7-hydroxy-2-azabicyclo[2.2.1]hept-2-yl]methyl}[1]benzofuro[3,2-d]pyrimidin-4(3H)-one]	< 10	< 10	< 10	< 0.1	–	–
CN(CCO)Cc1nc2c(oc3ccc(Br)cc32)c(=O)[nH]1 [Compound 401, 8-bromo-2-{[(2-hydroxyethyl)(methyl)amino]methyl}[1]benzofuro[3,2-d]pyrimidin-4(3H)-one]	< 10	< 10	< 10	< 0.1	–	–
Cc1cc2oc3c(=O)[nH]c(CN4CC[C@H](O)C4)nc3c2cc1Br [Compound 420, 8-bromo-2-{[(3S)-3-hydroxypyrrolidin-1-yl]methyl}-7-methyl[1]benzofuro[3,2-d]pyrimidin-4(3H)-one]	< 10	< 10	< 10	–	–	–
O=c1[nH]c(CN2CC3CCC2C3)nc2c1oc1ccc(Br)cc12 (centres unmarked) [Compound 520, 2-(2-azabicyclo[2.2.1]hept-2-ylmethyl)-8-bromo[1]benzofuro[3,2-d]pyrimidin-4(3H)-one]	< 10	< 10	–	–	< 10	< 0.1
Cn1ccnc1C(=O)Nc1ccc(-c2nc3c(oc4ccc(Br)cc43)c(=O)[nH]2)c(Cl)c1 [Compound 390, N-[4-(8-bromo-4-oxo-3,4-dihydro[1]benzofuro[3,2-d]pyrimidin-2-yl)-3-chlorophenyl]-1-methyl-1H-imidazole-2-carboxamide]	< 10	< 10	< 10	–	–	–
CC(C)C(c1nc2c(oc3ccc(Br)cc32)c(=O)[nH]1)N1CCCC1 (centres unmarked) [Compound 153, 8-Bromo-2-(2-methyl-1-pyrrolidin-1-ylpropyl)[1]benzofuro[3,2-d]pyrimidin-4(3H)-one]	< 10	< 10	< 10	–	–	–
Cc1cc(Br)cc2c1oc1c(=O)[nH]c(CN3CC[C@H](O)C3)nc12 [Compound 434, 8-bromo-2-{[(3S)-3-hydroxypyrrolidin-1-yl]methyl}-6-methyl[1]benzofuro[3,2-d]pyrimidin-4(3H)-one]	< 10	< 10	< 10	–	–	–
NCCNc1nc2c(oc3ccc(Br)cc32)c(=O)[nH]1 [Compound 231, 2-[(2-aminoethyl)amino]-8-bromo[1]benzofuro[3,2-d]pyrimidin-4(3H)-one]	< 10	< 10	< 10	< 0.1	–	–
CC(N)c1nc2c(oc3ccc(Br)cc32)c(=O)[nH]1 (centres unmarked) [Compound 175, 2-(1-aminoethyl)-8-bromo[1]benzofuro[3,2-d]pyrimidin-4(3H)-one]	< 10	< 10	< 10	< 0.1	–	–
C[C@H](N)c1nc2c(oc3ccc(Cl)cc32)c(=O)[nH]1 [Compound 533, 2-[(1S)-1-aminoethyl]-8-chloro[1]benzofuro[3,2-d]pyrimidin-4(3H)-one]	< 10	< 10	< 10	< 0.1	–	–
O=c1[nH]c(CN2CCC(F)(F)CC2)nc2c1oc1ccc(Br)cc12 [Compound 114, 8-bromo-2-[(4,4-difluoropiperidin-1-yl)methyl][1]benzofuro[3,2-d]pyrimidin-4(3H)-one]	< 10	< 10	< 10	–	–	–
C[C@H](O)c1nc2c(oc3ccc(Br)cc32)c(=O)[nH]1 [Compound 497, 8-bromo-2-[(1S)-1-hydroxyethyl][1]benzofuro[3,2-d]pyrimidin-4(3H)-one]	< 10	< 10	< 10	–	–	–
O=c1[nH]c(C2CCCN2)nc2c1oc1ccc(Br)cc12 (centres unmarked) [Compound 169, 8-bromo-2-pyrrolidin-2-yl[1]benzofuro[3,2-d]pyrimidin-4(3H)-one]	< 10	< 10	< 10	< 0.1	–	–
O=c1[nH]c(C2CCCO2)nc2c1oc1ccc(Br)cc12 (centres unmarked) [Compound 499, 8-bromo-2-(tetrahydrofuran-2-yl)[1]benzofuro[3,2-d]pyrimidin-4(3H)-one]	< 10	< 10	< 10	–	–	–
O=c1[nH]c(C2CCCNC2)nc2c1oc1ccc(Br)cc12 (centres unmarked) [Compound 158, 8-Bromo-2-piperidin-3-yl[1]benzofuro[3,2-d]pyrimidin-4(3H)-one]	< 10	< 10	< 10	< 0.1	–	–
CN(C)CCC(=O)Nc1ccc(-c2nc3c(oc4ccc(Br)cc43)c(=O)[nH]2)c(Cl)c1 [Compound 135, N-[4-(8-bromo-4-oxo-3,4-dihydro[1]benzofuro[3,2-d]pyrimidin-2-yl)-3-chlorophenyl]-N′3′,N′3′-dimethyl-beta-alaninamide]	< 10	< 10	< 10	–	–	–
COc1ccc2oc3c(=O)[nH]c([C@@H]4CC(F)(F)CN4)nc3c2c1 [Compound 531, 2-[(2S)-4,4-difluoropyrrolidin-2-yl]-8-(methyloxy)[1]benzofuro[3,2-d]pyrimidin-4(3H)-one]	< 10	< 10	< 10	< 0.1	–	–
Cc1n[nH]c2ccc(-c3nc4c(oc5ccc(Br)cc54)c(=O)[nH]3)cc12 [Compound 123, 8-bromo-2-(3-methyl-1H-indazol-5-yl)[1]benzofuro[3,2-d]pyrimidin-4(3H)-one]	< 10	< 10	< 10	–	–	–
O=c1[nH]c(-c2ccccc2-n2ccnc2)nc2c1oc1ccc(Br)cc12 [Compound 48, 8-bromo-2-[2-(1H-imidazol-1-yl)phenyl][1]benzofuro[3,2-d]pyrimidin-4(3H)-one]	< 10	< 10	< 10	–	–	–

Reference: US20090247559A1 (Exelixis, Inc., priority 2007, published 2009)
